Results from publication PMC10818719 (Viruses, 2023).
Where two headings read alike, the source gives them in different places.

How the values were obtained:
[1] = test system: bovine coronavirus (BCoV) strain S379 Riems; format: cell-based, Beta-coronavirus 1; conditions: for EC100 (100% Viable Cells): BCoV MOI = 1, with irradiation
vaccinia viruses = conditions: 30 µM of MB + PDI; not virus antigenicity; cited from earlier work
MDBK cells [2] = test: cells; conditions: Bos taurus
BCoV = test system: BCoV; set-up: method as in ref 48 = [48]; conditions: independently of light; cited from earlier work
SARS-CoV-2 [3] = conditions: irradiation with a wave length of λ = 662 nm; cited from earlier work
SARS-CoV-2 [4] = conditions: 1% MB, cited from earlier work
[5] = test system: bovine coronavirus (BCoV); format: cell-based, Beta-coronavirus 1; conditions: with irradiation, MDBK cells
MDBK cells [6] = conditions: for IC50: no BCoV
[7] = test system: bovine coronavirus (BCoV); format: cell-based, Beta-coronavirus 1
[8] = test system: human adenovirus type 5 (HAdV5); set-up: method as in ref 16 = [16]; conditions: combined virucidal and irradiation effects; cited from earlier work
SARS-CoV-2 [9] = test system: SARS-CoV-2; set-up: method as in ref 19 = [19]; conditions: in combination with far red light irradiation; cited from earlier work
[10] = test system: avian H5N8 influenza virus; conditions: cited from earlier work

## CN(C)c1ccc2nc3ccc(=[N+](C)C)cc-3sc2c1 [MB, Methylene blue]
[1]; MDBK cells, MTT
  EC100 (100% Viable Cells): 0.15 µM
[1]; without irradiation, highest tested concentration 0.3 µM, Figure 7a
  "dark" antiviral activity towards BCoV: not enough to achieve “dark” antiviral activity
Vaccinia viruses
  effect on virus infectivity: loss of virus infectivity
MDBK cells [2]; 24 h
  IC50: 2.54 µM
MDBK cells [2]; 48 h
  IC50: 1.28 µM
MDBK cells [2]; 72 h
  IC50: 1.8 µM
MDBK cells [2]; read-out: IC50, range over the incubation periods
  IC50: 1.28 to 2.54 µM
BCoV
  concentration at which light-independent antiviral activity was observed: ≥ 1 µM
SARS-CoV-2 [3]
  protection of Vero E6 cells from infection: fully protected
SARS-CoV-2 [4]; gargling or spraying in the nasal cavity, early stages of the infection
  SARS-CoV-2 virus load: sufficient reduction of the SARS-CoV-2 virus load
SARS-CoV-2 [4]; local application, even in patients with co-morbidities
  adverse effects: lack of adverse effects
[5]
  concentrations up to which permissive cells were observed: up to 0.075 µM

## Cc1cc2nc3ccc(N(C)C)cc3[s+]c2cc1N.[Cl-] [TBO, toluidine blue O]
MDBK cells [6]; 24 h incubation
  MNC (maximal nontoxic concentration): 0.66 µM
  IC50: 0.97 µM
MDBK cells [6]; 48 h incubation
  MNC (maximal nontoxic concentration): 0.35 µM
  IC50: 0.52 µM
MDBK cells [6]; 72 h incubation
  MNC (maximal nontoxic concentration): 0.59 µM
  IC50: 0.85 µM
MDBK cells [6]; 72 h of incubation
  fold lower IC50 of TBO than MB: 2.12 fold
[7]
  decrease in the number of viral cDNA: ~ 6 log/mL
[7]; TBO 0.02 µM
  Δlog cDNA/mL vs. Virus Control: 1.08 × 10^3
[7]; TBO 0.30 µM
  Δlog cDNA/mL vs. Virus Control: 5.91 × 10^6
[1]
  fold higher SI of TBO than MB: 1.7 fold
[1]; 50% BCoV inactivation, with irradiation
  fold lower EC50 (fold more active) of TBO than MB: 3.6 fold
[1]; BCoV MOI = 1, irradiation 54 J/cm^2 (680 nm) for MB, 99 J/cm^2 (635 nm) for TBO, MDBK cells, MTT, read-out: EC50 (50% Viable Cells)
  EC50: 0.005 µM
[1]; MDBK cells, MTT
  EC100 (100% Viable Cells): 0.02 µM
[1]; IC50 in MDBK cells / EC50 for direct BCoV inactivation with irradiation
  SI (IC50/EC50): 170
[1]; irradiation 680 nm and 54 J/cm^2 for MB, 635 nm and 99 J/cm^2 for TBO, Figure 7
  concentration resulting in strong inactivation of BCoV: ≥ 0.02 µM
[1]; with irradiation
  fold more effective than MB, based on the active concentrations: 25 fold
[1]; without irradiation, 0.25 µM, Figure 7b
  viable cells: 80%
[1]; without irradiation, concentration increased above 0.25 µM, Figure 7b
  decrease of the fraction of viable cells (cytotoxic): approximately 50%
[5]
  concentrations up to which permissive cells were observed: up to 0.01 µM

## octa-methylpyridyloxy-substituted Ga phthalocyanine [Ga8]
[8]
  PDI potential on naked viruses, especially on HAdV5: remarkable PDI potential

## octakis (cholinyl) zinc phthalocyanine [Zn-PcChol8+]
SARS-CoV-2 [9]
  infectivity of SARS-CoV-2: completely destroyed the infectivity
[10]
  sensitivity of the virus to PDI: sensitive to PDI

## tetra-methylpyridyloxy-substituted Ga phthalocyanine [Ga4]
[8]
  PDI potential on naked viruses, especially on HAdV5: remarkable PDI potential
